Measurements as given in patent publication US20090232838A1, “Ligands of melanocortin receptors” (priority 2005, published 2009).
pEC50: −log10 of the molar value.

What was measured:
Format in all cases: cell-based
hMC1-R = molecular target: T1, hMC1-R (Homo sapiens, UniProt Q01726); test: cyclic AMP bioassay, hMC1-R
T1 construct: expressed in transfected cells; host or cells: CHO-K1
Method: (§1) Intracellular cyclic AMP (cAMP) levels were determined by an electrochemiluminescence (ECL) assay (Meso Scale Discovery®, Gaithersburg, Md.; referred to hereinafter as MSD). […] Transgenic CHO-K1 cells stably expressing hMC receptor subtypes 1, 3, 4 or 5 were dispensed at a density of approximately 7,000 cells/well in 384-well Multi-Arrays plates (MSD) containing integrated carbon electrodes and coated with anti-CAMP antibody. Increasing concentrations of the test compounds were added and the cells were incubated for approximately 40 minutes at approximately 37° C. […] At the end of the second incubation period read buffer (Tris-buffered solution containing an ECL co-reactant and Triton X-100 at ph 7.8) was added and the cAMP levels in the cell lysates were immediately determined by ECL detection with a Sector Imager 6000 Reader® (MSD). Data were analyzed using a computer-assisted non-linear regression analysis (XL fit; IDBS) and reported as either an EC50 value or a Kb value.
(§2) The Kb value reflects the potency of an antagonist and is determined by Schild analysis. In brief, concentration-response curves of an agonist are carried out in the presence of increasing concentrations of an antagonist. […] It is calculated by extrapolating the line on a Schild plot to zero on the y-axis.

hMC3-R = molecular target: T2, hMC3-R (Homo sapiens, UniProt P41968); test: cyclic AMP bioassay, hMC3-R
T2 construct: expressed in transfected cells; host or cells: CHO-K1
T2 sequence (P41968 whole entry): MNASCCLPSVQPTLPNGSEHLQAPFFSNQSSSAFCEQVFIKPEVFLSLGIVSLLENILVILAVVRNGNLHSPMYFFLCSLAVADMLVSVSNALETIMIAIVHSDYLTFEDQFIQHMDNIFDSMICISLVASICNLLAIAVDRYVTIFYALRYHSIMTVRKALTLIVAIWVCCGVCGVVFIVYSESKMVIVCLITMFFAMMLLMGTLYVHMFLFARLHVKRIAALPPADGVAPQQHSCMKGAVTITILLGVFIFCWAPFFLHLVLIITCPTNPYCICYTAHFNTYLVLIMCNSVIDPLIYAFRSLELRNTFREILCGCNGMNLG
Method: as §1, §2

hMC4-R = molecular target: T3, hMC4-R (Homo sapiens, UniProt P32245); test: cyclic AMP bioassay, hMC4-R
T3 construct: expressed in transfected cells; host or cells: CHO-K1
T3 sequence (P32245 whole entry): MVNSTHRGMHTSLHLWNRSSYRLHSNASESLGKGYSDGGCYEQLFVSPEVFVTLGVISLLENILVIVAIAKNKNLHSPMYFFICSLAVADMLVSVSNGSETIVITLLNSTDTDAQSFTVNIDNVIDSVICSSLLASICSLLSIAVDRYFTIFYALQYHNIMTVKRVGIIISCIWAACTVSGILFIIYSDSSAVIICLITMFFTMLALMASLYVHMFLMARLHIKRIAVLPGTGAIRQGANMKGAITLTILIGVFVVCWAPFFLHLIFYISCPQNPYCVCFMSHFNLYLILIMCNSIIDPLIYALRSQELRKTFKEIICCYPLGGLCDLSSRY
Method: as §1, §2

hMC5-R = molecular target: T4, hMC5-R (Homo sapiens, UniProt P33032); test: cyclic AMP bioassay, hMC5-R
T4 construct: expressed in transfected cells; host or cells: CHO-K1
T4 sequence (P33032 whole entry): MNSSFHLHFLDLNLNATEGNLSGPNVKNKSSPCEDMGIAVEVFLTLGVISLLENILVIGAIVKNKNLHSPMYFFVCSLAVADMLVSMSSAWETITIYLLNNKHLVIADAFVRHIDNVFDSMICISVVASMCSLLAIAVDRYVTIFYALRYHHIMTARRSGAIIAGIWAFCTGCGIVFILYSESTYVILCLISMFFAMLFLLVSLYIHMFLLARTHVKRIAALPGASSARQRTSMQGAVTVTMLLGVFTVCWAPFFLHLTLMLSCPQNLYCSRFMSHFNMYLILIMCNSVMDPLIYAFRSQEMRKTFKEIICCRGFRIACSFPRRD
Method: as §1, §2

T1 sequence (Q01726 whole entry): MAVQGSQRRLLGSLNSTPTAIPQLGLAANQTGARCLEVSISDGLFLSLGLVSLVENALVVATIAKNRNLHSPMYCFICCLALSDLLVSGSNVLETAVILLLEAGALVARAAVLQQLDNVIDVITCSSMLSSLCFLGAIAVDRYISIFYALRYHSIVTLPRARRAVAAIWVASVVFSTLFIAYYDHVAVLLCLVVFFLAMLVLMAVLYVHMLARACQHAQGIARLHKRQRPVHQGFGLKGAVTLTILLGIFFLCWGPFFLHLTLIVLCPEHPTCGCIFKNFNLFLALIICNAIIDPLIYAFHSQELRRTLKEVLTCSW

Row | SMILES | pEC50 (hMC1-R) | pEC50 (hMC3-R) | pEC50 (hMC4-R) | pEC50 (hMC5-R) | Kb (hMC3-R) [nM] | Kb (hMC4-R) [nM]
1 | CCCC[C@H](NC(C)=O)C(=O)N[C@H]1CSSC[C@@H](C(=O)NCCOCCOCC(=O)NCCOCCOCC(=O)N[C@@H](Cc2ccc(O)cc2)C(=O)NCC(=O)N[C@@H](CCCNC(=N)N)C(=O)N[C@@H](CCCCN)C(=O)N[C@@H](CCCCN)C(=O)N[C@@H](CCCNC(=N)N)C(=O)N[C@@H](CCCNC(=N)N)C(=O)N[C@@H](CCC(N)=O)C(=O)N[C@@H](CCCNC(=N)N)C(=O)N[C@@H](CCCNC(=N)N)C(=O)N[C@@H](CCCNC(=N)N)C(N)=O)NC(=O)[C@H](Cc2c[nH]c3ccccc23)NC(=O)[C@H](CCCNC(=N)N)NC(=O)[C@@H](Cc2ccccc2)NC(=O)[C@H](Cc2c[nH]cn2)NC(=O)[C@@H](C)NC1=O | 8.33 | 8.34 | 9.20 | 6.83 | – | –
2 | CCCC[C@H](NC(C)=O)C(=O)N[C@H]1CSSC[C@@H](C(=O)NCCC(=O)N[C@@H](Cc2ccc(O)cc2)C(=O)NCC(=O)N[C@@H](CCCNC(=N)N)C(=O)N[C@@H](CCCCN)C(=O)N[C@@H](CCCCN)C(=O)N[C@@H](CCCNC(=N)N)C(=O)N[C@@H](CCC(N)=O)C(=O)N[C@@H](CCCNC(=N)N)C(=O)N[C@@H](CCCNC(=N)N)C(=O)N[C@@H](CCCNC(=N)N)C(=O)N[C@@H](CCCNC(=N)N)C(N)=O)NC(=O)[C@H](Cc2c[nH]c3ccccc23)NC(=O)[C@H](CCCNC(=N)N)NC(=O)[C@@H](Cc2ccccc2)NC(=O)[C@H](Cc2c[nH]cn2)NC(=O)[C@@H](C)NC1=O | 8.23 | 8.11 | 8.99 | 5.54 | – | –
3 | CC(=O)N[C@H]1CSSC[C@@H](C(=O)N2CCC[C@H]2C(=O)N2CCC[C@H]2C(=O)N[C@@H](CCCCN)C(=O)N[C@@H](CC(=O)O)C(=O)NCCC(=O)NCC(=O)N[C@@H](CCCNC(=N)N)C(=O)N[C@@H](CCCNC(=N)N)C(=O)N[C@@H](CCCCN)C(=O)N[C@@H](CCCNC(=N)N)C(=O)N[C@@H](CCCNC(=N)N)C(=O)N[C@@H](CCC(N)=O)C(=O)N[C@@H](CCCNC(=N)N)C(=O)N[C@@H](CCCNC(=N)N)C(=O)N[C@@H](CCCNC(=N)N)C(N)=O)NC(=O)[C@H](C)NC(=O)[C@H](Cc2cccc3ccccc23)NC(=O)[C@H](CCCNC(=N)N)NC(=O)[C@@H](Cc2ccc3ccccc3c2)NC(=O)[C@H](Cc2c[nH]cn2)NC(=O)[C@H](CCC(=O)O)NC1=O | 7.58 | – | – | 6.45 | 101 | 9.34
4 | CC(=O)N[C@H]1CSSC[C@@H](C(=O)N2CCC[C@H]2C(=O)N2CCC[C@H]2C(=O)N[C@@H](CCCCN)C(=O)N[C@@H](CC(=O)O)C(=O)NCCC(=O)NCC(=O)N[C@@H](CCCNC(=N)N)C(=O)N[C@@H](CCCCN)C(=O)N[C@@H](CCCNC(=N)N)C(=O)N[C@@H](CCCNC(=N)N)C(=O)N[C@@H](CCCNC(=N)N)C(=O)N[C@@H](CCC(N)=O)C(=O)N[C@@H](CCCNC(=N)N)C(=O)N[C@@H](CCCNC(=N)N)C(=O)N[C@@H](CCCNC(=N)N)C(N)=O)NC(=O)[C@H](C)NC(=O)[C@H](Cc2cccc3ccccc23)NC(=O)[C@H](CCCNC(=N)N)NC(=O)[C@@H](Cc2ccc3ccccc3c2)NC(=O)[C@H](Cc2c[nH]cn2)NC(=O)[C@H](CCC(=O)O)NC1=O | 7.34 | – | – | 6.83 | 181 | 6.35
5 | CC(=O)N[C@H]1CSSC[C@@H](C(=O)N2CCC[C@H]2C(=O)N2CCC[C@H]2C(=O)N[C@@H](CCCCN)C(=O)N[C@@H](CC(=O)O)C(=O)NCCC(=O)N[C@@H](CCCNC(=N)N)C(=O)N[C@@H](CCCCN)C(=O)N[C@@H](CCCNC(=N)N)C(=O)N[C@@H](CCCNC(=N)N)C(=O)N[C@@H](CCCNC(=N)N)C(=O)N[C@@H](CCC(N)=O)C(=O)N[C@@H](CCCNC(=N)N)C(=O)N[C@@H](CCCNC(=N)N)C(=O)N[C@@H](CCCNC(=N)N)C(N)=O)NC(=O)[C@H](C)NC(=O)[C@H](Cc2ccc3ccccc3c2)NC(=O)[C@H](CCCNC(=N)N)NC(=O)[C@@H](Cc2ccc3ccccc3c2)NC(=O)[C@H](Cc2c[nH]cn2)NC(=O)[C@H](CCC(=O)O)NC1=O | 7.63 | – | – | 7.40 | 9.22 | 5.87
